According to patent publication US11161845B2, “Pyrrolopyridine-aniline compounds for treatment of dermal disorders” (Nflection Therapeutics, Inc., priority 2017, dated 2021):

How the values were obtained:
MEK1 = target: T1, MEK1 (Homo sapiens, UniProt Q02750); test: MEK inhibition assay, Biological Example 1a (33P-ATP, P81 filter-binding); details: read-out: Assay 1: biochemical MEK IC50
T1 construct: N-terminal His-tagged recombinant human full length protein; His (N); purchased Invitrogen PV3303; host or cells: insect cells
Method: MEK1 inhibitory activity of compounds were tested using the following procedure. […] Activated in vitro by RAF1. MW=49.2 kDa, GenBank Accession No. NP_002746. • Substrate: 5 μM ERK2 (K52R), • Kinase-dead mutant, (GenBank Accession No. NM_0011949), aa2-358 with N-terminal His6 tag, MW=43.63 kDa, expressed in E. coli.
The substrate was prepared in freshly prepared Reaction Buffer. The kinase was delivered into the substrate solution and gently mixed. Test compounds were delivered in 100% DMSO into the kinase reaction mixture by Acoustic technology (Echo550; nanoliter range), and incubated for 20 min at room temperature. ^33P-ATP was delivered into the reaction mixture to initiate the reaction. The reaction mixture was incubated for 2 hours at room temperature. Kinase activity was detected by P81 filter-binding method.

[1] = test system: p-ERK in human cutaneous neurofibroma (cNF) explants; test: Human cutaneous neurofibroma explant protocol, p-ERK suppression; type: cell-based
Source text: Study Objectives: The primary objective was to assess the efficacy of a topically-formulated compound described herein in suppressing p-ERK, a downstream biomarker of RAS/MAPK signaling in neurofibroma explants.
Primary dermal neurofibromas or cutaneous neurofibromas were obtained from patients with clinical or genetic diagnoses of NFL. […] Specimens were identified under the direction of the Principal Investigator and placed in cell proliferation media (DMEM/F12 containing penicillin/streptomycin (0.1%); fungizone (40 μg/mL); B27 (without vitamin A).
Specimens were identified under the direction of the Principal Investigator
Specimens were chopped into 2 mm fragments and placed in 24-well plates containing cell proliferation media (DMEM/F12 containing penicillin/streptomycin (0.1%); fungizone (40 μg/mL); B27 (without vitamin A) and submerged in media with drug. For topical gel application, samples were placed in 96 well plates with epidermal surface exposed to air.
The gel formulation was 1% hydroxypropyl cellulose in DMSO/PEG 400 1:1 (v/v). Harvested tissue was bisected and with half snap frozen and half fixed in 10% formalin and paraffin embedded for further analysis.
Samples were harvested at 4 hours with half snap frozen in liquid nitrogen and half fixed in 10% formalin and paraffin embedded for histologic analysis.
Western Blot analysis: For immunoblotting, total skin biopies were lysed in lysis buffer and run on Western blots. Antibodies used for immunoblotting included rabbit anti-phospho-p44/42 MAPK (1:3000, Cell Signaling) and rabbit anti-p44/42 MAPK (1:3000, Cell Signaling), rabbit anti-phospho-Mek1/2 (1:3000, Cell Signaling), mouse anti-actin (1:5000, Sigma-Aldrich), donkey anti-mouse IgG conjugated to horseradish peroxidase (HRP; 1:40,000, Amersham Biosciences) and goat anti-rabbit IgG conjugated HRP (1:40,000, Jackson ImmunoResearch).
Immunohistochemistry: Immunohistochemistry was performed on 5 pm paraffin sections. Antigen retrieval with enzyme treatment (1:1000) using standard protocols. Antibodies used were rabbit p-ERK (Cell Signaling, 4307S, 1:100). Bond Polymer Refine anti-rabbit HRP Detection (Leica Biosystems) was used according to manufacturer's protocol. Sections were then counterstained with hematoxylin, dehydrated and film coverslipped using a TissueTek-Prisma and Coverslipper (Sakura).
Data Analysis: Semi-quantative Western blot was used to assess differences in p-ERK in samples treated with a compound described herein compared to vehicle control.

hERG channel protein = target: T2, hERG channel protein (Homo sapiens, UniProt Q12809); test: hERG screening assay (Predictor hERG FP); type: binding; details: fluorescence polarization tracer displacement
T2 construct: purchased ThermoFisher PV5365
Method: hERG screening was conducted using a procedure similar to the procedure described by Piper et al. (Piper, D. R. et al., Assay Drug Dev. Technol. 2008, 6(2):213-223). The Predictor hERG FP assay (available from ThermoFisher, cat. no. PV5365) is a homogenous, fluorescence polarization biochemical-based format utilizing a membrane fraction containing hERG channel protein (Predictor hERG Membrane) and a high affinity, red-fluorescent hERG channel ligand (Predictor hERG Tracer Red). When the Predictor hERG Tracer ligand is bound to the hERG channel it produces high fluorescence polarization values. Compounds that bind to the hERG channel protein (competitors) displace the Predictor hERG Tracer Red resulting in decreased fluorescence polarization values.
Test compounds were solubilized in DMSO at 100× (or greater) of the desired starting concentration. Screening was conducted with a final concentration of 1% DMSO. For 10-point titrations, 3-fold serial dilutions were performed from the starting concentrations. The assay buffer used was 25 mM HEPES (pH 7.5), 15 mM KCl, 1 mM MgCl2, and 0.05% Pluronic F-127 (available from Sigma-Aldrich).
Predictor hERG membranes were stored as a 2× stock at −80° C. Each membrane lot was titrated to identify the concentration of membranes required to obtain ˜70% bound tracer. Before setting up the assay the membranes were thawed in a 37° C. water bath and stored at room temperature. To avoid light scatter caused by large membrane particulates the membranes were sonicated until a homogeneous solution free of particulates is obtained. […]
384 well untreated low-volume polystyrene microplates (Corning Cat. #4511) were used for the assay. […] The assay plate was read on a fluorescence plate reader (Tecan Safire^2) and the data was analyzed. […]
Assay blank control wells consisted of Predictor hERG Membranes and Assay Buffer. The blank wells were used for background subtraction of raw parallel and perpendicular fluorescence values prior to the calculation of polarization values. […]

T1 sequence (Q02750 whole entry): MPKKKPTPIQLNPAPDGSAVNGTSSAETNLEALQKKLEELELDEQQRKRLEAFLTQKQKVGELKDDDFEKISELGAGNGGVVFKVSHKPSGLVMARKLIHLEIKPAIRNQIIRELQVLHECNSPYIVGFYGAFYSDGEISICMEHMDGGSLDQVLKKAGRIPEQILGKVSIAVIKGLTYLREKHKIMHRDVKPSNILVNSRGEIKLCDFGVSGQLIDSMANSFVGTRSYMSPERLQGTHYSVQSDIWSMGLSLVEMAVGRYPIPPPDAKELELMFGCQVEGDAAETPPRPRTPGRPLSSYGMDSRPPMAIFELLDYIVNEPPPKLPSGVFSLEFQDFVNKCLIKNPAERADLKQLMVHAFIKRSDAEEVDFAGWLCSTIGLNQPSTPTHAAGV
T2 sequence (Q12809 whole entry): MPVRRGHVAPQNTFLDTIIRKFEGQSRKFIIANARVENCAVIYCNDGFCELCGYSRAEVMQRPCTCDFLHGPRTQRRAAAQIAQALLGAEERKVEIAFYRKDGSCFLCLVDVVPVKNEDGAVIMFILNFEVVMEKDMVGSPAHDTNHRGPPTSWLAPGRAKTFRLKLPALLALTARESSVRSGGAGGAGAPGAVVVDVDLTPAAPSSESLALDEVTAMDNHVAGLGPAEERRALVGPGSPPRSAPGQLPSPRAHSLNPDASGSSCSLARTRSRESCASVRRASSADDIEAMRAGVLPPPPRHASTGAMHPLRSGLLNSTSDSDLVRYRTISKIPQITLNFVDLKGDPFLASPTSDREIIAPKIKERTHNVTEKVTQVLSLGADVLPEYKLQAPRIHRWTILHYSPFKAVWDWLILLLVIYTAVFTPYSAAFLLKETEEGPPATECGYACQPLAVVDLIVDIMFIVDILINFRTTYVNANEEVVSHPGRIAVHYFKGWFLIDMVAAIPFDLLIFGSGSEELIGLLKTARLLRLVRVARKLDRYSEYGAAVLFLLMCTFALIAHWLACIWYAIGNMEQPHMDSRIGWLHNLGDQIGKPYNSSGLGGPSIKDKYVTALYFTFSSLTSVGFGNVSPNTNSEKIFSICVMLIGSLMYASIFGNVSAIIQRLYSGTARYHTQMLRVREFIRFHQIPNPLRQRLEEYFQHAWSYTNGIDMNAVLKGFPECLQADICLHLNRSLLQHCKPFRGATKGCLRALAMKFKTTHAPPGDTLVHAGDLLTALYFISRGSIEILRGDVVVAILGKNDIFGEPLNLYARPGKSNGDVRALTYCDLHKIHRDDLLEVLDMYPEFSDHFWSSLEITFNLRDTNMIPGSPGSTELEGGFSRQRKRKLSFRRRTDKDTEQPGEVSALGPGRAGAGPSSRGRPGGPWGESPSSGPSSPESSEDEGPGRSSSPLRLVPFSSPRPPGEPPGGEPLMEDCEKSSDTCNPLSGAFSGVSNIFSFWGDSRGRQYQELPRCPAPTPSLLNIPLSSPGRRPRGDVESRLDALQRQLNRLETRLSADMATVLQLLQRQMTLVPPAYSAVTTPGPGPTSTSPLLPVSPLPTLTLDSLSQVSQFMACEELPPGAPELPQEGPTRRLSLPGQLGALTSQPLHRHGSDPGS

Cn1c(Nc2ccc(I)cc2F)c(C(=O)NOCCO)c2cccnc21 [Example 2, 2-((2-Fluoro-4-iodophenyl)amino)—N-(2-hydroxyethoxy)-1-methyl-1H-pyrrolo[2,3-b]pyridine-3-carboxamide]
IC50 (MEK1): 246 nM | suppression of p-ERK ([1]; FIG. 2, 500 nM, explant submerged in media, 4 hours): suppression of p-ERK | dose-dependent suppression of p-ERK ([1]; FIG. 3, explant submerged in media, 4 hours): dose-dependent suppression of p-ERK | p-ERK after application of a topical gel ([1]; FIG. 4, gel 1% hydroxypropyl cellulose in DMSO/PEG 400 1:1, 4 hours): p-ERK was suppressed | suppression of pERK ([1]; FIGS. 1a and 1b, explant submerged in media, 4 hours): suppression of pERK | IC50 (hERG channel protein): > 30 µM
